The values that follow are results of earlier work, collected in patent US7611910B2, “Method for diagnosis of alzheimer's disease” (Intracell, LLC, priority 1998, dated 2009).

For the series the following is noted: patients treated with indomethacin.

As to `COc1ccc2c(c1)c(CC(=O)O)c(C)n2C(=O)c1ccc(Cl)cc1` [indomethacin], the “progression of Alzheimer's disease” value is given as “reduced progression”.
